Measured values from ChEMBL document CHEMBL3994575, “Helixconstraints and amino acid substitution in GLP-1 increase cAMP and insulin secretion but not beta-arrestin 2 signaling” (Eur J Med Chem, 2017).
Positions of bridges follow the written chain, without caps; N, C: chain ends. Residues, ends and D or L forms follow the SMILES beside them.

Assays:
[1] = target: T1, Glucagon-like peptide 1 receptor (Homo sapiens, UniProt P43220); experiment: Displacement of [125I]-GLP (7 to 36 residues) from human GLP1R expressed in CHO cell membranes incubated for 30 mins measured after 10 hrs by scintillation proximity assay
T1 sequence (P43220 whole entry, the tested form may be a part): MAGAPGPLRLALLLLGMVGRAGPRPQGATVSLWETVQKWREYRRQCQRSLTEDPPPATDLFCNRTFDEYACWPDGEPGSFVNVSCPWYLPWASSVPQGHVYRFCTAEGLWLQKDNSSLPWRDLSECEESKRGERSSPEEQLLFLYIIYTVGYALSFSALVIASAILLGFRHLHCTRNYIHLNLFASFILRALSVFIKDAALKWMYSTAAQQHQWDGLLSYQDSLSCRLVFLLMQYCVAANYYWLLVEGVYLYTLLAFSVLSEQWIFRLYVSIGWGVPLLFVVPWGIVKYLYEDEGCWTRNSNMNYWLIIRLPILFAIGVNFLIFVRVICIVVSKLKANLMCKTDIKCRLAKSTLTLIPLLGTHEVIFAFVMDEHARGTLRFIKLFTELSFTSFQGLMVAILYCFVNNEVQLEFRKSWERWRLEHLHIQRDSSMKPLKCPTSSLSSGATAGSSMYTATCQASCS

[2] = target: T1, Glucagon-like peptide 1 receptor; experiment: Agonist activity at human GLP1R expressed in CHO cells assessed as cAMP accumulation incubated for 30 mins by LANCE assay; assay type: functional, cell-based
[3] = target: T1, Glucagon-like peptide 1 receptor; experiment: Agonist activity at human GLP1R expressed in CHOK1 cells assessed as induction of beta-galactosidase-tagged beta-arrestin2 recruitment incubated for 90 mins by PathHunter enzyme complementation assay; assay type: cell-based
[4] = target: T2, Glucagon-like peptide 1 receptor (Rattus norvegicus, UniProt P32301); experiment: Agonist activity at GLP1R in rat INS-1 cells assessed as increase in glucose-stimulated insulin secretion after 1 hr by HTRF assay; assay type: cell-based
T2 sequence (P32301 whole entry): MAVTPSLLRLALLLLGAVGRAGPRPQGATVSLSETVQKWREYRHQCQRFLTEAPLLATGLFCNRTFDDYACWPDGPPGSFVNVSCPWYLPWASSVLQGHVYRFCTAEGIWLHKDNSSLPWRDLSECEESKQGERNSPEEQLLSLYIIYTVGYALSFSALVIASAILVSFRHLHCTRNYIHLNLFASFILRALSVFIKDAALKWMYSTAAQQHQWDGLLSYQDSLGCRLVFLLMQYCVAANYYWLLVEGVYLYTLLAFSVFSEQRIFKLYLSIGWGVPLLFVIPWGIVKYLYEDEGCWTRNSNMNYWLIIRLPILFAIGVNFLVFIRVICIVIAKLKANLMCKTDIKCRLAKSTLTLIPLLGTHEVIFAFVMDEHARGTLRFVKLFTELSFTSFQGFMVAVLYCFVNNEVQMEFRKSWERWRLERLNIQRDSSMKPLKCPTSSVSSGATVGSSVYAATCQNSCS

Row | Ki [1] [nM] | EC50 [2] [nM] | EC50 [3] [nM] | EC50 [4] [nM] | Compound
1 | > 50 | 20 | > 1000 | 130 | CC[C@H](C)[C@H](NC(=O)[C@H](Cc1ccccc1)NC(=O)[C@H](CCC(=O)O)NC(=O)[C@H](CCCCN)NC(=O)[C@H](C)NC(=O)[C@H](C)NC(=O)[C@H](CCC(N)=O)NC(=O)CNC(=O)[C@@H]1CCCN1C(=O)[C@H](CC(C)C)NC(=O)[C@H](Cc1ccc(O)cc1)NC(=O)[C@H](CO)NC(=O)[C@H](CO)NC(=O)[C@@H](NC(=O)[C@H](CC(=O)O)NC(=O)[C@H](CO)NC(=O)[C@@H](NC(=O)[C@H](Cc1ccccc1)NC(=O)[C@@H](NC(=O)CNC(=O)[C@H](CCC(=O)O)NC(=O)[C@H](C)NC(=O)[C@@H](N)Cc1cnc[nH]1)[C@@H](C)O)[C@@H](C)O)C(C)C)C(=O)N[C@H]1CCCCNC(=O)C[C@@H](C(=O)NCC(=O)N[C@@H](CCCNC(=N)N)C(=O)NCC(N)=O)NC(=O)[C@H](C(C)C)NC(=O)[C@H](CC(C)C)NC(=O)[C@H](Cc2c[nH]c3ccccc23)NC1=O (H-HAEGTFTSDVSSYLPGQAAKEFIKWLVDGRG-NH2; lactam 24-28)
2 | – | – | – | 50 | CC[C@H](C)[C@H](NC(=O)[C@H](Cc1ccccc1)NC(=O)[C@H](CCC(=O)O)NC(=O)[C@H](CCCCN)NC(=O)[C@H](C)NC(=O)[C@H](C)NC(=O)[C@H](CCC(N)=O)NC(=O)CNC(=O)[C@H](CCC(=O)O)NC(=O)[C@H](CC(C)C)NC(=O)[C@H](Cc1ccc(O)cc1)NC(=O)[C@@H]1CC(=O)NCCCC[C@H](NC(=O)[C@@H](NC(=O)[C@H](Cc2ccccc2)NC(=O)[C@@H](NC(=O)CNC(=O)[C@H](CCC(=O)O)NC(=O)[C@H](C)NC(=O)[C@@H](N)Cc2cnc[nH]2)[C@@H](C)O)[C@@H](C)O)C(=O)N[C@@H](CC(=O)O)C(=O)N[C@@H](C(C)C)C(=O)N[C@@H](CO)C(=O)N1)C(=O)N[C@@H](C)C(=O)N[C@@H](Cc1c[nH]c2ccccc12)C(=O)N[C@@H](CC(C)C)C(=O)N[C@H](C(=O)N[C@@H](CCCCN)C(=O)NCC(=O)N[C@@H](CCCNC(=N)N)C(=O)NCC(N)=O)C(C)C (H-HAEGTFTKDVSDYLEGQAAKEFIAWLVKGRG-NH2; lactam 8-12)
3 | 1.4 | 0.004 | 11 | 0.25 | CC[C@H](C)[C@H](NC(=O)[C@H](Cc1ccccc1)NC(=O)[C@H](CCC(=O)O)NC(=O)[C@H](CCCCN)NC(=O)[C@H](C)NC(=O)[C@H](C)NC(=O)[C@H](CCC(N)=O)NC(=O)[C@H](C)NC(=O)[C@H](CCC(=O)O)NC(=O)[C@@H]1CC(=O)NCCCC[C@H](NC(=O)[C@H](CC(=O)O)NC(=O)[C@H](CO)NC(=O)[C@@H](NC(=O)[C@H](Cc2ccccc2)NC(=O)[C@@H](NC(=O)CNC(=O)[C@H](CCC(=O)O)NC(=O)[C@H](C)NC(=O)[C@@H](N)Cc2cnc[nH]2)[C@@H](C)O)[C@@H](C)O)C(=O)N[C@@H](CO)C(=O)N[C@@H](CO)C(=O)N[C@@H](Cc2ccc(O)cc2)C(=O)N1)C(=O)N[C@H]1CCCCNC(=O)C[C@@H](C(=O)NCC(=O)N[C@@H](CCCNC(=N)N)C(=O)NCC(N)=O)NC(=O)[C@H](C(C)C)NC(=O)[C@H](CC(C)C)NC(=O)[C@H](Cc2c[nH]c3ccccc23)NC1=O (H-HAEGTFTSDKSSYDEAQAAKEFIKWLVDGRG-NH2; lactam 10-14, 24-28)
4 | – | – | – | 16 | CC[C@H](C)[C@H](NC(=O)[C@H](Cc1ccccc1)NC(=O)[C@H](CCC(=O)O)NC(=O)[C@H](CCCCN)NC(=O)[C@H](C)NC(=O)[C@H](C)NC(=O)[C@H](CCC(N)=O)NC(=O)CNC(=O)[C@H](CCC(=O)O)NC(=O)[C@H](CC(C)C)NC(=O)[C@H](Cc1ccc(O)cc1)NC(=O)[C@H](CO)NC(=O)[C@H](Cc1ccc(O)cc1)NC(=O)[C@@H](NC(=O)[C@H](CC(=O)O)NC(=O)[C@H](CO)NC(=O)[C@@H](NC(=O)[C@H](Cc1ccccc1)NC(=O)[C@@H](NC(=O)CNC(=O)[C@H](CCC(=O)O)NC(=O)[C@H](C)NC(=O)[C@@H](N)Cc1cnc[nH]1)[C@@H](C)O)[C@@H](C)O)C(C)C)C(=O)N[C@@H](C)C(=O)N[C@@H](Cc1c[nH]c2ccccc12)C(=O)N[C@@H](CC(C)C)C(=O)N[C@H](C(=O)N[C@@H](CCCCN)C(=O)NCC(=O)N[C@@H](CCCNC(=N)N)C(=O)NCC(N)=O)C(C)C
5 | 1.7 | 0.02 | 11 | – | CC[C@H](C)[C@H](NC(=O)[C@H](Cc1ccccc1)NC(=O)[C@H](CCC(=O)O)NC(=O)[C@H](CCCCN)NC(=O)[C@H](C)NC(=O)[C@H](C)NC(=O)[C@H](CCC(N)=O)NC(=O)[C@H](C)NC(=O)[C@H](CCC(=O)O)NC(=O)[C@H](CC(C)C)NC(=O)[C@H](Cc1ccc(O)cc1)NC(=O)[C@H](CO)NC(=O)[C@H](CO)NC(=O)[C@@H](NC(=O)[C@H](CC(=O)O)NC(=O)[C@H](CO)NC(=O)[C@@H](NC(=O)[C@H](Cc1ccccc1)NC(=O)[C@@H](NC(=O)CNC(=O)[C@H](CCC(=O)O)NC(=O)[C@H](C)NC(=O)[C@@H](N)Cc1cnc[nH]1)[C@@H](C)O)[C@@H](C)O)C(C)C)C(=O)N[C@H]1CCCCNC(=O)C[C@@H](C(=O)NCC(=O)N[C@@H](CCCNC(=N)N)C(=O)NCC(N)=O)NC(=O)[C@H](C(C)C)NC(=O)[C@H](CC(C)C)NC(=O)[C@H](Cc2c[nH]c3ccccc23)NC1=O (H-HAEGTFTSDVSSYLEAQAAKEFIKWLVDGRG-NH2; lactam 24-28)
6 | 0.49 | 0.023 | 3.4 | – | CC[C@H](C)[C@H](NC(=O)[C@H](Cc1ccccc1)NC(=O)[C@H](CCC(=O)O)NC(=O)[C@H](CCCCN)NC(=O)[C@H](C)NC(=O)[C@H](C)NC(=O)[C@H](CCC(N)=O)NC(=O)CNC(=O)[C@H](CCC(=O)O)NC(=O)[C@H](CC(C)C)NC(=O)[C@H](Cc1ccc(O)cc1)NC(=O)[C@H](CO)NC(=O)[C@H](CO)NC(=O)[C@H](Cc1ccc(O)cc1)NC(=O)[C@H](CC(=O)O)NC(=O)[C@H](CO)NC(=O)[C@@H](NC(=O)[C@H](Cc1ccccc1)NC(=O)[C@@H](NC(=O)CNC(=O)[C@H](CCC(=O)O)NC(=O)[C@H](C)NC(=O)[C@@H](N)Cc1cnc[nH]1)[C@@H](C)O)[C@@H](C)O)C(=O)N[C@H]1CCCCNC(=O)C[C@@H](C(=O)NCC(=O)N[C@@H](CCCNC(=N)N)C(=O)NCC(N)=O)NC(=O)[C@H](C(C)C)NC(=O)[C@H](CC(C)C)NC(=O)[C@H](Cc2c[nH]c3ccccc23)NC1=O (H-HAEGTFTSDYSSYLEGQAAKEFIKWLVDGRG-NH2; lactam 24-28)
